In PMC6032158, “Structure–Activity Relationship of Piplartine and Synthetic Analogues against Schistosoma mansoni and Cytotoxicity to Mammalian Cells” (International Journal of Molecular Sciences, 2018):
Entries after “also recorded” stand apart in the source; their conditions may differ.

Columns and labels:
[1] = tested on: 49-day-old S. mansoni adult worms; test: In vitro experiments with adult worms of S. mansoni (mortality, motor activity); type: cell-based, Schistosoma mansoni; settings: for Dead Worms (%) F / Motor Activity Reduction (%) Significant F / Motor Activity Reduction (%) Slight F: female worms; for Dead Worms (%) M / Motor Activity Reduction (%) Significant M / Motor Activity Reduction (%) Slight M: male worms
Procedure, shortened: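 BH-strain worm pairs recovered from hamsters 49 days post-infection, washed in RPMI 1640 with penicillin, streptomycin and amphotericin B, and cultured as mated pairs with or without drug for 96 h. Motor activity changes and death were scored by microscopy.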

[2] = tested on: murine fibroblast (NIH-3T3) cells; test: MTT cytotoxicity assay in murine fibroblasts; type: cell-based
Procedure, shortened: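 NIH-3T3 cells exposed 24 h to samples at 25–800 µg/mL in 3% DMSO, with 3% DMSO as control. MTT (5 mg/mL stock) added for 2 h, formazan dissolved in DMSO, absorbance read at 595 nm.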

J774A.1 cells = test: Cell death mechanism, annexin-V FITC / propidium iodide staining by flow cytometry; type: cell-based, mouse; settings: J774A.1, 24 h; piplartine 25 μg/mL, 14B 400 μg/mL
Description: Cells were then treated with 2 µL of annexin-V FITC (Apoptosis Detection Kit; BD Biosciences, Franklin Lakes, NJ, USA) and 2 µL of propidium iodide (PI, 50 µg/mL) for 15 min in the dark at room temperature. Next, 100 µL binding buffer was added and samples were analysed by flow cytometry (BD LSFortessa^TM, Franklin Lakes, NJ, USA). A total of 20,000 events were collected per sample.

Compound: O=C(/C=C/c1ccc2c(c1)OCO2)N1CCCC1 [Compound 14B]
- Dead Worms (%) F ([1]; 5 µM, 24 h): 0%
- Motor Activity Reduction (%) Significant F ([1]; 5 µM, 24 h): 0%
- Motor Activity Reduction (%) Slight F ([1]; 5 µM, 24 h): 0%
- Dead Worms (%) M ([1]; 5 µM, 24 h): 0%
- Motor Activity Reduction (%) Significant M ([1]; 5 µM, 24 h): 0%
- Motor Activity Reduction (%) Slight M ([1]; 5 µM, 24 h): 0%
- Dead Worms (%) F ([1]; 5 µM, 48 h): 0%
- Motor Activity Reduction (%) Significant F ([1]; 5 µM, 48 h): 0%
- Motor Activity Reduction (%) Slight F ([1]; 5 µM, 48 h): 0%
- Dead Worms (%) M ([1]; 5 µM, 48 h): 0%
- Motor Activity Reduction (%) Significant M ([1]; 5 µM, 48 h): 0%
- Motor Activity Reduction (%) Slight M ([1]; 5 µM, 48 h): 0%
- Dead Worms (%) F ([1]; 5 µM, 72 h): 0%
- Motor Activity Reduction (%) Significant F ([1]; 5 µM, 72 h): 0%
- Motor Activity Reduction (%) Slight F ([1]; 5 µM, 72 h): 0%
- Dead Worms (%) M ([1]; 5 µM, 72 h): 0%
- Motor Activity Reduction (%) Significant M ([1]; 5 µM, 72 h): 0%
- Motor Activity Reduction (%) Slight M ([1]; 5 µM, 72 h): 0%
- Dead Worms (%) F ([1]; 5 µM, 96 h): 0%
- Motor Activity Reduction (%) Significant F ([1]; 5 µM, 96 h): 0%
- Motor Activity Reduction (%) Slight F ([1]; 5 µM, 96 h): 0%
- Dead Worms (%) M ([1]; 5 µM, 96 h): 0%
- Motor Activity Reduction (%) Significant M ([1]; 5 µM, 96 h): 0%
- Motor Activity Reduction (%) Slight M ([1]; 5 µM, 96 h): 0%
- Dead Worms (%) F ([1]; 10 µM, 24 h): 0%
- Motor Activity Reduction (%) Significant F ([1]; 10 µM, 24 h): 0%
- Motor Activity Reduction (%) Slight F ([1]; 10 µM, 24 h): 0%
- Dead Worms (%) M ([1]; 10 µM, 24 h): 0%
- Motor Activity Reduction (%) Significant M ([1]; 10 µM, 24 h): 0%
- Motor Activity Reduction (%) Slight M ([1]; 10 µM, 24 h): 0%
- Dead Worms (%) F ([1]; 10 µM, 48 h): 0%
- Motor Activity Reduction (%) Significant F ([1]; 10 µM, 48 h): 0%
- Motor Activity Reduction (%) Slight F ([1]; 10 µM, 48 h): 0%
- Dead Worms (%) M ([1]; 10 µM, 48 h): 0%
- Motor Activity Reduction (%) Significant M ([1]; 10 µM, 48 h): 0%
- Motor Activity Reduction (%) Slight M ([1]; 10 µM, 48 h): 0%
- Dead Worms (%) F ([1]; 10 µM, 72 h): 0%
- Motor Activity Reduction (%) Significant F ([1]; 10 µM, 72 h): 0%
- Motor Activity Reduction (%) Slight F ([1]; 10 µM, 72 h): 0%
- Dead Worms (%) M ([1]; 10 µM, 72 h): 0%
- Motor Activity Reduction (%) Significant M ([1]; 10 µM, 72 h): 0%
- Motor Activity Reduction (%) Slight M ([1]; 10 µM, 72 h): 0%
- Dead Worms (%) F ([1]; 10 µM, 96 h): 0%
- Motor Activity Reduction (%) Significant F ([1]; 10 µM, 96 h): 0%
- Motor Activity Reduction (%) Slight F ([1]; 10 µM, 96 h): 0%
- Dead Worms (%) M ([1]; 10 µM, 96 h): 0%
- Motor Activity Reduction (%) Significant M ([1]; 10 µM, 96 h): 0%
- Motor Activity Reduction (%) Slight M ([1]; 10 µM, 96 h): 0%
- Dead Worms (%) F ([1]; 25 µM, 24 h): 0%
- Motor Activity Reduction (%) Significant F ([1]; 25 µM, 24 h): 0%
- Motor Activity Reduction (%) Slight F ([1]; 25 µM, 24 h): 0%
- Dead Worms (%) M ([1]; 25 µM, 24 h): 0%
- Motor Activity Reduction (%) Significant M ([1]; 25 µM, 24 h): 0%
- Motor Activity Reduction (%) Slight M ([1]; 25 µM, 24 h): 0%
- Dead Worms (%) F ([1]; 25 µM, 48 h): 0%
- Motor Activity Reduction (%) Significant F ([1]; 25 µM, 48 h): 0%
- Motor Activity Reduction (%) Slight F ([1]; 25 µM, 48 h): 0%
- Dead Worms (%) M ([1]; 25 µM, 48 h): 0%
- Motor Activity Reduction (%) Significant M ([1]; 25 µM, 48 h): 0%
- Motor Activity Reduction (%) Slight M ([1]; 25 µM, 48 h): 0%
- Dead Worms (%) F ([1]; 25 µM, 72 h): 0%
- Motor Activity Reduction (%) Significant F ([1]; 25 µM, 72 h): 0%
- Motor Activity Reduction (%) Slight F ([1]; 25 µM, 72 h): 0%
- Dead Worms (%) M ([1]; 25 µM, 72 h): 0%
- Motor Activity Reduction (%) Significant M ([1]; 25 µM, 72 h): 0%
- Motor Activity Reduction (%) Slight M ([1]; 25 µM, 72 h): 0%
- Dead Worms (%) F ([1]; 25 µM, 96 h): 0%
- Motor Activity Reduction (%) Significant F ([1]; 25 µM, 96 h): 0%
- Motor Activity Reduction (%) Slight F ([1]; 25 µM, 96 h): 0%
- Dead Worms (%) M ([1]; 25 µM, 96 h): 0%
- Motor Activity Reduction (%) Significant M ([1]; 25 µM, 96 h): 0%
- Motor Activity Reduction (%) Slight M ([1]; 25 µM, 96 h): 0%
- Dead Worms (%) F ([1]; 50 µM, 24 h): 0%
- Motor Activity Reduction (%) Significant F ([1]; 50 µM, 24 h): 0%
- Motor Activity Reduction (%) Slight F ([1]; 50 µM, 24 h): 0%
- Dead Worms (%) M ([1]; 50 µM, 24 h): 0%
- Motor Activity Reduction (%) Significant M ([1]; 50 µM, 24 h): 0%
- Motor Activity Reduction (%) Slight M ([1]; 50 µM, 24 h): 0%
- Dead Worms (%) F ([1]; 50 µM, 48 h): 0%
- Motor Activity Reduction (%) Significant F ([1]; 50 µM, 48 h): 0%
- Motor Activity Reduction (%) Slight F ([1]; 50 µM, 48 h): 0%
- Dead Worms (%) M ([1]; 50 µM, 48 h): 0%
- Motor Activity Reduction (%) Significant M ([1]; 50 µM, 48 h): 0%
- Motor Activity Reduction (%) Slight M ([1]; 50 µM, 48 h): 0%
- Dead Worms (%) F ([1]; 50 µM, 72 h): 0%
- Motor Activity Reduction (%) Significant F ([1]; 50 µM, 72 h): 0%
- Motor Activity Reduction (%) Slight F ([1]; 50 µM, 72 h): 0%
- Dead Worms (%) M ([1]; 50 µM, 72 h): 0%
- Motor Activity Reduction (%) Significant M ([1]; 50 µM, 72 h): 0%
- Motor Activity Reduction (%) Slight M ([1]; 50 µM, 72 h): 0%
- Dead Worms (%) F ([1]; 50 µM, 96 h): 0%
- Motor Activity Reduction (%) Significant F ([1]; 50 µM, 96 h): 0%
- Motor Activity Reduction (%) Slight F ([1]; 50 µM, 96 h): 0%
- Dead Worms (%) M ([1]; 50 µM, 96 h): 0%
- Motor Activity Reduction (%) Significant M ([1]; 50 µM, 96 h): 0%
- Motor Activity Reduction (%) Slight M ([1]; 50 µM, 96 h): 0%
- activity against S. mansoni adult worms (in words) ([1]; analogues 50, 25, 10 and 5 μM, piplartine 5 and 10 μM, up to 96 h): loss of biological activity against S. mansoni
- effect on NIH-3T3 cell viability (in words) ([2]; MTT, 24 h exposure, 25 to 800 µg/mL): considerable reduction in cell viability at concentrations of 400 and 800 μg/mL; also recorded: showed toxicity at 200, 400 and 800 μg/mL
- Emax at 800 µg/mL ([2]; Mus musculus, NIH3T3, 24 h, decrease in cell viability at the maximum concentration tested (800 μg/mL), NIH-3T3, 24 h): 83.64 ± 0.47%
- annexin-V FITC staining (apoptosis marker) vs DMEM negative control (in words) (J774A.1 cells): significant (p < 0.05) increase in annexin-V FITC staining
